Values after ≈ are worked out from the molar mass of the structure shown.
Columns and labels:
60 cancer cell lines = experiment: NCI-60 one-dose screen (10 μM); type: cell-based; conditions: Homo sapiens; one dose of 10 μM, mean over 60 cancer cell lines; read-out: Mean Growth Percent (MGP)
Source text: Additionally, the mean of the growth percentages (MGP) of each compound against all the 60 cancer cell lines is also reported, which is used as one of the selection criteria to continue with tests at five concentration doses.

[1] = system: N. gonorrhoeae ATCC 49226; experiment: MIC on GC agar plates; type: cell-based, Neisseria gonorrhoeae; conditions: Neisseria gonorrhoeae, ATCC49226, read-out: MIC
Method: An initial screening for bacterial inhibition was performed by the agar diffusion method. […] DMSO and TSB were included as negative controls. Gentamicin and trimethoprim sulfamethoxazole were included as a positive control for growth inhibition. Derivatives showing growth inhibition were tested at least twice before being selected for the microdilution test. For N. gonorrhoeae, the agar diffusion method was also used for screening with some modifications. […] Penicillin and tetracycline were used as controls. […] Briefly, GC agar supplemented with 1% isovitalex was prepared with increasing concentrations of the new compounds and inoculated with 10 µL of a bacterial suspension (1 × 10^4 CFU). The lowest concentration of the compound that inhibited bacterial growth was determined as the MIC. Bacterial growth was examined and verified using the oxidase test. The experiments were performed in duplicate in at least two independent assays.

[2] = Hemolytic activity, spectrophotometric; type: cell-based, human; conditions: human, human red blood cells (huRBC), 5% hematocrit, 200 μg/mL, 37 °C
[3] = system: Candida albicans (ATCC 10231); experiment: Antifungal broth microdilution (CLSI); type: cell-based; conditions: ATCC10231; Ca: Candida albicans
Method: Several of the obtained triazine derivatives were evaluated against sensitive fungal species comprising of two yeasts (Candida albicans (ATCC 10231), Cryptococcus neoformans (ATCC 32264)), three dermatophytes (Microsporum gypseum (CCC 115), Trichophyton rubrum (CCC 134-2000), Trichophyton mentagrophytes (CCC 202-2000)), and three Aspergillus fungi ((A. [NT] 26934), A. niger (ATCC 9029), and A. flavus (ATCC 9170)). […] Broth microdilution techniques were performed in 96-well microplates according to the Reference Method for Broth Dilution Antifungal Susceptibility Testing of Yeasts, document M27-A3 [86] and of Filamentous Fungi […]-A8 [87]. […] An inoculum suspension (100 μL) was added to each well (final well volume = 200 μL). One growth control well (containing medium, inoculum, and the same amount of DMSO as used for each compound) and one sterility control well (sample, medium, and sterile water instead of inoculum) were included for each fungus tested. Microtiter plates were incubated in a dark, humid chamber at 30 °C for the time necessary for each fungus. Amphotericin B, Terbinafine, Fluconazole and Itraconazole were used as a positive control. The tests were performed in triplicate.

[4] = system: M. tuberculosis ATCC 27294; experiment: Antitubercular broth microdilution MIC; type: cell-based; conditions: Mycobacterium tuberculosis; M. tuberculosis ATCC 27294 (H37Rv); read-out: Minimum inhibitory concentration (MIC)

| SMILES | activity at 10 µM (60 cancer cell lines) | MIC [1] | hemolysis at 24 h, 200 µg/mL [2] | MIC [3] | MIC [4] |
| --- | --- | --- | --- | --- | --- |
| COc1cc(C2CC(c3ccc(Nc4nc(NCCO)nc(N5CCOCC5)n4)cc3)=Nc3c(N)nc(N)nc3N2)cc(OC)c1OC (centres unmarked) [32d] | 99.5% | 500 µg/mL (≈ 759 µM) | – | – | – |
| CN(C)c1nc(NCCNS(=O)(=O)c2ccc(C3=Nc4c(N)nc(N)nc4NC(c4ccccc4)C3)cc2)nc(N2CCOCC2)n1 (centres unmarked) [30a] | 85.4% | – | 0.6% | – | – |
| CCC(C)n1ncn(-c2ccc(N3CCN(c4ccc(OCC5COC(Cn6cncn6)(c6ccc(Cl)cc6Cl)O5)cc4)CC3)cc2)c1=O (centres unmarked) [Itraconazole, reference compound] | – | – | – | 0.5 µg/mL (≈ 0.709 µM) | – |
| COc1ccc(C2=Nc3c(N)nc(N)nc3NC(c3ccc(Oc4nc(NCCO)nc(N5CCOCC5)n4)c(OC)c3)C2)cc1 (centres unmarked) [28c] | 102% | 0.5 µg/mL (≈ 0.794 µM) | 7% | – | – |
| COc1ccc(C(=O)/C=C/c2ccc(Oc3nc(Nc4ccc(F)cc4)nc(N(C)C)n3)c(OC)c2)cc1 [21c] | 48.4% | – | – | – | – |
| CC(=O)c1ccc(S(=O)(=O)NCCNc2nc(Nc3ccc(F)cc3)nc(N(C)C)n2)cc1 [compound 18] | 104% | – | – | – | – |
| COc1cc(/C=C/C(=O)c2ccc(F)cc2)ccc1Oc1nc(Nc2ccc(F)cc2)nc(N(C)C)n1 [21f] | 56% | 500 µg/mL (≈ 993 µM) | 0.8% | – | – |
| COc1cc(C2CC(c3ccccc3)=Nc3c(N)nc(N)nc3N2)ccc1Oc1nc(Nc2ccc(F)cc2)nc(N(C)C)n1 (centres unmarked) [29a] | 40.2% | 2 µg/mL (≈ 3.29 µM) | 3% | – | 5 µg/mL (≈ 8.23 µM) |
| COc1cc(/C=C/C(=O)c2ccc(Cl)cc2)ccc1Oc1nc(NCCO)nc(N2CCOCC2)n1 [20e] | 94.7% | – | – | – | – |
| COc1ccc(C2CC(c3ccc(Nc4nc(NCCO)nc(Nc5ccc(Cl)cc5)n4)cc3)=Nc3c(N)nc(N)nc3N2)cc1 (centres unmarked) [33c] | 63.3% | 2 µg/mL (≈ 3.13 µM) | 5% | – | – |
| COc1cc(C=O)ccc1Oc1nc(NCCO)nc(N2CCOCC2)n1 [compound 14] | 102% | – | – | – | – |
| COc1ccc(C2CC(c3ccc(S(=O)(=O)NCCNc4nc(Nc5ccc(F)cc5)nc(N(C)C)n4)cc3)=Nc3c(N)nc(N)nc3N2)cc1 (centres unmarked) [31c] | 75.8% | 8 µg/mL (≈ 11.2 µM) | 1.2% | – | 1.2 µg/mL (≈ 1.68 µM) |
| COc1cc(C2CC(c3ccc(C)cc3)=Nc3c(N)nc(N)nc3N2)ccc1Oc1nc(Nc2ccc(F)cc2)nc(N(C)C)n1 (centres unmarked) [29b] | 51.3% | ≥ 500 µg/mL | – | – | 0.6 µg/mL (≈ 0.965 µM) |
| CN(C)c1nc(NCCNS(=O)(=O)c2ccc(C3=Nc4c(N)nc(N)nc4NC(c4ccc(F)cc4)C3)cc2)nc(N2CCOCC2)n1 (centres unmarked) [30f] | 72.8% | – | – | – | – |
| COc1cc(/C=C/C(=O)c2ccc(C(F)(F)F)cc2)ccc1Oc1nc(Nc2ccc(F)cc2)nc(N(C)C)n1 [21g] | 73.2% | – | – | – | – |
| Nc1nc(N)c2c(n1)NC(c1ccccc1)CC(c1ccc(Nc3nc(NCCO)nc(N4CCOCC4)n3)cc1)=N2 (centres unmarked) [32a] | 87.2% | 8 µg/mL (≈ 14.1 µM) | 2% | – | – |
| COc1cc(C2CC(c3ccc(Cl)cc3)=Nc3c(N)nc(N)nc3N2)ccc1Oc1nc(NCCO)nc(N2CCOCC2)n1 (centres unmarked) [28e] | 70.2% | 8 µg/mL (≈ 12.6 µM) | 5% | – | – |
| Cc1ccc(/C=C/C(=O)c2ccc(S(=O)(=O)NCCNc3nc(N(C)C)nc(N4CCOCC4)n3)cc2)cc1 [23b] | 72.3% | – | 1.8% | – | – |
| COc1cc(C2CC(c3ccc(Nc4nc(NCCO)nc(Nc5ccc(Cl)cc5)n4)cc3)=Nc3c(N)nc(N)nc3N2)cc(OC)c1OC (centres unmarked) [33d] | 65.3% | – | – | – | – |
| COc1cc(C2CC(c3ccccc3)=Nc3c(N)nc(N)nc3N2)ccc1Oc1nc(NCCO)nc(N2CCOCC2)n1 (centres unmarked) [28a] | 98.8% | 4 µg/mL (≈ 6.67 µM) | 3% | – | – |

| SMILES | activity at 10 µM (60 cancer cell lines) | MIC [1] | hemolysis at 24 h, 200 µg/mL [2] | MIC [3] | MIC [4] |
| --- | --- | --- | --- | --- | --- |
| COc1cc(/C=C/C(=O)c2ccc(Cl)cc2)ccc1Oc1nc(Nc2ccc(F)cc2)nc(N(C)C)n1 [21e] | 73.1% | – | – | – | – |
| COc1cc(C2CC(c3cc(OC)c(OC)c(OC)c3)=Nc3c(N)nc(N)nc3N2)ccc1Oc1nc(NCCO)nc(N2CCOCC2)n1 (centres unmarked) [28d] | 98.9% | 2 µg/mL (≈ 2.9 µM) | 1% | – | – |
| COc1cc(C=O)ccc1Oc1nc(Nc2ccc(F)cc2)nc(N(C)C)n1 [compound 15] | 64.5% | ≥ 500 µg/mL | – | – | – |
| Cc1ccc(C2CC(c3ccc(Nc4nc(NCCO)nc(N5CCOCC5)n4)cc3)=Nc3c(N)nc(N)nc3N2)cc1 (centres unmarked) [32b] | 84.5% | 4 µg/mL (≈ 6.86 µM) | 1% | – | – |
| COc1ccc(C2CC(c3ccc(Nc4nc(NCCO)nc(N5CCOCC5)n4)cc3)=Nc3c(N)nc(N)nc3N2)cc1 (centres unmarked) [32c] | 101% | – | – | – | – |
| COc1cc(/C=C/C(=O)c2ccc(C(F)(F)F)cc2)ccc1Oc1nc(NCCO)nc(N2CCOCC2)n1 [20g] | 77.7% | – | – | – | – |
| COc1cc(C2CC(c3ccc(F)cc3)=Nc3c(N)nc(N)nc3N2)ccc1Oc1nc(NCCO)nc(N2CCOCC2)n1 (centres unmarked) [28f] | 98.2% | 8 µg/mL (≈ 13 µM) | 2% | – | – |
| Cc1ccc(C2CC(c3ccc(S(=O)(=O)NCCNc4nc(N(C)C)nc(N5CCOCC5)n4)cc3)=Nc3c(N)nc(N)nc3N2)cc1 (centres unmarked) [30b] | 49.9% | – | 0.2% | – | – |
| Nc1nc(N)c2c(n1)NC(c1ccc(F)cc1)CC(c1ccc(Nc3nc(NCCO)nc(N4CCOCC4)n3)cc1)=N2 (centres unmarked) [32f] | 89.1% | 2 µg/mL (≈ 3.41 µM) | 5% | – | – |
| COc1cc(C2CC(c3ccc(S(=O)(=O)NCCNc4nc(Nc5ccc(F)cc5)nc(N(C)C)n4)cc3)=Nc3c(N)nc(N)nc3N2)cc(OC)c1OC (centres unmarked) [31d] | 79.6% | 500 µg/mL (≈ 646 µM) | 0.6% | – | 5 µg/mL (≈ 6.46 µM) |
| COc1ccc(/C=C/C(=O)c2ccc(S(=O)(=O)NCCNc3nc(N(C)C)nc(N4CCOCC4)n3)cc2)cc1 [23c] | 81.5% | – | 0% | – | – |
| Nc1nc(N)c2c(n1)NC(c1ccc(C(F)(F)F)cc1)CC(c1ccc(Nc3nc(NCCO)nc(N4CCOCC4)n3)cc1)=N2 (centres unmarked) [32g] | 64.8% | 4 µg/mL (≈ 6.28 µM) | 2% | – | – |
| COc1ccc(C(=O)/C=C/c2ccc(Oc3nc(NCCO)nc(N4CCOCC4)n3)c(OC)c2)cc1 [20c] | 72% | – | – | – | – |
| COc1cc(C2CC(c3ccc(C)cc3)=Nc3c(N)nc(N)nc3N2)ccc1Oc1nc(NCCO)nc(N2CCOCC2)n1 (centres unmarked) [28b] | 89.7% | 4 µg/mL (≈ 6.52 µM) | 5% | – | – |
| CN(C)c1nc(NCCNS(=O)(=O)c2ccc(C3=Nc4c(N)nc(N)nc4NC(c4ccc(Cl)cc4)C3)cc2)nc(N2CCOCC2)n1 (centres unmarked) [30e] | 48.9% | – | 2.7% | – | – |
| COc1ccc(C2CC(c3ccc(S(=O)(=O)NCCNc4nc(N(C)C)nc(N5CCOCC5)n4)cc3)=Nc3c(N)nc(N)nc3N2)cc1 (centres unmarked) [30c] | 84.3% | – | – | – | – |
| NNC(=O)c1ccncc1 [Isoniazid, reference compound] | – | – | – | – | 0.1 µg/mL (≈ 0.729 µM) |
| COc1cc(/C=C/C(=O)c2ccccc2)ccc1Oc1nc(NCCO)nc(N2CCOCC2)n1 [20a] | 92.1% | – | – | – | – |
| Nc1nc(N)c2c(n1)NC(c1ccc(Cl)cc1)CC(c1ccc(Nc3nc(NCCO)nc(N4CCOCC4)n3)cc1)=N2 (centres unmarked) [32e] | 74% | 1000 µg/mL (≈ 1660 µM) | – | – | – |
| COc1cc(/C=C/C(=O)c2ccc(F)cc2)ccc1Oc1nc(NCCO)nc(N2CCOCC2)n1 [20f] | 72.4% | – | – | – | – |

Source: publication PMC11012124, “Synthesis of Novel Triazine-Based Chalcones and 8,9-dihydro-7H-pyrimido[4,5-b][1,4]diazepines as Potential Leads in the Search of Anticancer, Antibacterial and Antifungal Agents” (International Journal of Molecular Sciences, 2024)
